According to article PMC11423305, “Structure-Based Design of CBP/EP300 Degraders: When Cooperativity Overcomes Affinity” (JACS Au, 2024):
pIC50, pKd: −log10 of the molar value. Where two headings read alike, the source gives them in different places.

Legend:
[1] = target: T1, CBP-BRD (Homo sapiens, UniProt Q92793); experiment: BROMOscan ligand binding site-directed competition assay, CBP; parameters: T7 phage display fusion with DNA tag for qPCR; purchased Eurofins Discovery (BROMOscan service); host or cells: E. coli infected with T7 phage; details: for pKd: BROMOscan; for LE CBP (ligand efficiency): LE = 1.4(pIC50)/N
Experimental: (§1) 2. Methods and General Procedures […]
(§2) KD values were determined using BROMOscan™ technology, carried out by Eurofins […]
(§3) Discovery according to their standard protocol. Briefly E. coli were infected with T7 phage […]
(§4) strains displaying bromodomains and bromodomain protein was subsequently purified […]
(§5) through lysis, centrifugation and filtration. Affinity resins were generated by incubation of […]
(§6) streptavidin-coated magnetic beads with biotinylated small molecules or acetylated […]
(§7) peptide ligands. Binding reactions were assembled by combining the bromodomains and […]
(§8) liganded affinity beads in binding buffer (17 % SeaBlock, 0.33x PBS, 0.04 % Tween 20, […]
(§9) 0.02 % BSA, 0.004 % sodium azide and 7.4 mM DTT) with compounds (11-point, 3-fold […]
(§10) dilution series) added to give a final DMSO concentration of 0.09 %. Assay plates were […]
(§11) incubated for 1 h, prior to washing and elution of beads. The bromodomain concentration […]
(§12) in the eluates was measured by qPCR of the DNA tag on the bromodomain.
(§13) KD values were calculated with a standard dose-response curve fitted using the Hill […]
(§14) Response = Background + Signal − Background […]
(§15) The Hill Slope was set to -1 and curves fitted using a non-linear least square fit with the Levenberg-Marquardt algorithm.
(§16) Ligand efficiency (LE) was calculated as follows: LE = 1.4(pIC50)/N

[2] = target: T2, EP300-BRD (Homo sapiens, UniProt Q09472); experiment: BROMOscan ligand binding site-directed competition assay, EP300; details: for pKd: BROMOscan; for LE EP300 (ligand efficiency): LE = 1.4(pIC50)/N
T2 construct: T7 phage display fusion with DNA tag for qPCR; purchased Eurofins Discovery (BROMOscan service); host or cells: E. coli infected with T7 phage
T2 sequence (Q09472 1049-1156 limits assumed): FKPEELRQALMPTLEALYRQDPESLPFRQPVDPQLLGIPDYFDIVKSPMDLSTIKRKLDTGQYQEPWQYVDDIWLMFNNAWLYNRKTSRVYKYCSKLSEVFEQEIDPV
Experimental: as §1, §2, §3, §4, §5, §6, §7, §8, §9, §10, §11, §12, §13, §14, §15, §16

[3] = target: T3, EP300 (Homo sapiens, UniProt Q09472); experiment: Quantification of EP300 degradation by Western blotting in LP1 cells; assay type: cell-based; details: 16 h, Western blot; for % remaining EP300: 5 μM compound
T3 construct: quantification of CBP and EP300 levels by Western blotting following 16 h treatment of LP1 cells; endogenous in cells; host or cells: LP1 cells
Experimental: (§17) LP1 cells were cultured in DMEM (Gibco, 41966-029) supplemented with 15 % FBS (Sigma, F9665); MM1S and LNCaP cells in RPMI 1640 ATCC modification (Gibco, […]
(§18) DMEM/F12 (Gibco, 11320074) supplemented with 1 % non-essential amino acids […]
(§19) additionally supplemented with 1 % penicillin/streptomycin (Gibco, 15070-063), and cells maintained in a humidified incubator with 5 % CO2 at 37 °C. The identity of all lines (except for MM1S which were recently purchased from ATCC) was authenticated by STR profiling (performed by Microsynth).
(§20) Quantification of CBP/EP300 degradation by Western blotting
(§21) LP1 cells plated on 6 well plates were treated with the stated compounds at a final concentration of 0.1 % DMSO for the stated time. Cells were harvested on ice, washed in PBS and lysed in RIPA buffer (50 mM tris pH 7.5, 2 mM EDTA, 150 mM NaCl, 0.5 % sodium deoxycholate, 1 % Triton X100) supplemented with cOmplete ™ protease inhibitor cocktail (Roche). Protein concentrations were determined using the Pierce ™ BCA Protein Assay Kit (Thermo Scientific, 23227) and equal amounts were separated on 4-12 % ExpressPl us™ PAGE gels (GenScript, M41215). Proteins were transferred to PVDF membranes, the membranes were blocked with 5 % milk (Merk Millipore, 115363) in PBS-T and proteins were stained with the following antibodies at 4 °C overnight: CBP […]
(§22) BRD4 (Bethyl Laboratories, A301-985A50, diluted 1:2000) and vinculin (Invitrogen, 42H89L44, diluted 1:1000). For detection, membranes were incubated for 1 h at room temperature with HRP-conjugated secondary antibodies (Southern Biotech, anti-rabbit […]
(§23) SuperSignal™ West Pico PLUS Chemiluminescent Substrate (Thermo Scientific, 34580) and the Vilber Fusion-FX7 imager. Bands were quantified using ImageJ software and protein levels normalized to protein from DMSO treated cells run on the same membrane. For dose response curves, data was fitted using a four -parameter dose-response curve in GraphPad Prism v. 9.5.1, where the top is fixed at 100 %. The DC50 was defined as the PROTAC concentration resulting in 50 % remaining protein. […]

[4] = target: CRBN and CBP catalytic core (Homo sapiens, UniProt Q92793+Q96SW2); experiment: FluoPPI cellular ternary complex formation, CBP catalytic core; assay type: cell-based; details: U2OS cells, 6 h
[5] = target: T4, CBP (Homo sapiens, UniProt Q92793); experiment: Quantification of CBP degradation by Western blotting in LP1 cells; assay type: cell-based; details: 16 h, Western blot; for % remaining CBP: 5 μM compound
T4 construct: quantification of CBP and EP300 levels by Western blotting following 16 h treatment of LP1 cells; endogenous in cells; host or cells: LP1 cells
Experimental: as §17, §18, §19, §20, §21, §22, §23

[6] = target: CRBN and CBP-BRD (Homo sapiens, UniProt Q92793+Q96SW2); experiment: FluoPPI cellular ternary complex formation, CBP-BRD; assay type: cell-based; details: U2OS cells, 6 h
[7] = target: T1, CBP-BRD; experiment: TR-FRET competition with acetylated peptide binding to CBP-BRD, with and without CRBN (cooperativity); parameters: GST-CBP (human, residues 1081-1197); made in house; host or cells: Rosetta (DE3) cells (E. coli)
[8] = target: T5, CBP-BRD:CRBN thalidomide binding domain ternary complex (Homo sapiens, UniProt Q92793+Q96SW2); experiment: TR-FRET CBP-BRD:PROTAC:CRBN ternary complex formation; details: CBP-BRD and CRBN-thalidomide binding domain labeled with TR-FRET pair
T5 construct: GST-CBP (human, residues 1081-1197); the C-terminus of CRBN (human, residues 318-442); His6 with TEV cleavage site (N, cleaved yes); made in house; host or cells: Rosetta (DE3) cells (E. coli)
Experimental: (PMSF), and 1 mM EDTA) and lysed by sonication. The lysates were clarified by centrifugation (18,000 rpm, 4 °C, 1 h).
For GST-CBP the soluble proteins were loaded onto a column packed with glutathione sepharose 4B (GE Healthcare) and subsequently eluted with 10 mM reduced glutathione in buffer containing 20 mM Tris-HCl pH 8.0, and 150 mM NaCl. Finally, a size exclusion step (HiLoad 16/600 Superdex 200 pg column from GE Healthcare) was used to further purify the protein in buffer containing 50 mM HEPES pH 7.5 and 150 mM NaCl. For His-CRBN and His-CRBN-Avi(biotin), the soluble fractions were loaded onto the HisTrap FF crude column (GE Healthcare) and washed with lysis buffer supplemented with 50 mM imidazole. The proteins were eluted with a buffer containing 250 mM imidazole, 100 mM Tris-HCl pH 8.0 and 500 mM NaCl. For His-CRBN-Avi(biotin) only, recombinant TEV protease was used to cleave the His6-tag during overnight dialysis at 4 °C against buffer containing 100 mM Tris-HCl pH 8.0 and 500 mM NaCl. The dialyzed sample was passed through the HisTrap FF crude column to remove His6-tagged TEV protease and uncleaved protein. […]
The maximal control contained no PROTAC, the blank contained no SK-20 and no PROTAC – these were replaced by the appropriate buffer. […] The samples were incubated for 3 h (20 °C, dark) and the signal was detected using the Infinite M1000 plate reader (Tecan). After excitation at 317 nm, emission at 620 and 665 nm was recorded. […]
were determined according to the following equation:
activity (%) = ΔF ∗ 100 = F−Fb ∗ 100 , where Ft is the TR-FRET signal in the absence of any compound (maximal control, 100 % activity), Fb the TR-FRET signal in the absence of the GST -CBP (blank, 0 % activity) and F the TR -FRET signal in the presence of the compound. Dose -response curves were plotted in GraphPad Prism 10.2.3 and fitted with nonlinear regression “log(inhibitor) vs. normalized response – variable slope”, from which IC 50 values were determined. […]

T3 sequence (Q09472 whole entry): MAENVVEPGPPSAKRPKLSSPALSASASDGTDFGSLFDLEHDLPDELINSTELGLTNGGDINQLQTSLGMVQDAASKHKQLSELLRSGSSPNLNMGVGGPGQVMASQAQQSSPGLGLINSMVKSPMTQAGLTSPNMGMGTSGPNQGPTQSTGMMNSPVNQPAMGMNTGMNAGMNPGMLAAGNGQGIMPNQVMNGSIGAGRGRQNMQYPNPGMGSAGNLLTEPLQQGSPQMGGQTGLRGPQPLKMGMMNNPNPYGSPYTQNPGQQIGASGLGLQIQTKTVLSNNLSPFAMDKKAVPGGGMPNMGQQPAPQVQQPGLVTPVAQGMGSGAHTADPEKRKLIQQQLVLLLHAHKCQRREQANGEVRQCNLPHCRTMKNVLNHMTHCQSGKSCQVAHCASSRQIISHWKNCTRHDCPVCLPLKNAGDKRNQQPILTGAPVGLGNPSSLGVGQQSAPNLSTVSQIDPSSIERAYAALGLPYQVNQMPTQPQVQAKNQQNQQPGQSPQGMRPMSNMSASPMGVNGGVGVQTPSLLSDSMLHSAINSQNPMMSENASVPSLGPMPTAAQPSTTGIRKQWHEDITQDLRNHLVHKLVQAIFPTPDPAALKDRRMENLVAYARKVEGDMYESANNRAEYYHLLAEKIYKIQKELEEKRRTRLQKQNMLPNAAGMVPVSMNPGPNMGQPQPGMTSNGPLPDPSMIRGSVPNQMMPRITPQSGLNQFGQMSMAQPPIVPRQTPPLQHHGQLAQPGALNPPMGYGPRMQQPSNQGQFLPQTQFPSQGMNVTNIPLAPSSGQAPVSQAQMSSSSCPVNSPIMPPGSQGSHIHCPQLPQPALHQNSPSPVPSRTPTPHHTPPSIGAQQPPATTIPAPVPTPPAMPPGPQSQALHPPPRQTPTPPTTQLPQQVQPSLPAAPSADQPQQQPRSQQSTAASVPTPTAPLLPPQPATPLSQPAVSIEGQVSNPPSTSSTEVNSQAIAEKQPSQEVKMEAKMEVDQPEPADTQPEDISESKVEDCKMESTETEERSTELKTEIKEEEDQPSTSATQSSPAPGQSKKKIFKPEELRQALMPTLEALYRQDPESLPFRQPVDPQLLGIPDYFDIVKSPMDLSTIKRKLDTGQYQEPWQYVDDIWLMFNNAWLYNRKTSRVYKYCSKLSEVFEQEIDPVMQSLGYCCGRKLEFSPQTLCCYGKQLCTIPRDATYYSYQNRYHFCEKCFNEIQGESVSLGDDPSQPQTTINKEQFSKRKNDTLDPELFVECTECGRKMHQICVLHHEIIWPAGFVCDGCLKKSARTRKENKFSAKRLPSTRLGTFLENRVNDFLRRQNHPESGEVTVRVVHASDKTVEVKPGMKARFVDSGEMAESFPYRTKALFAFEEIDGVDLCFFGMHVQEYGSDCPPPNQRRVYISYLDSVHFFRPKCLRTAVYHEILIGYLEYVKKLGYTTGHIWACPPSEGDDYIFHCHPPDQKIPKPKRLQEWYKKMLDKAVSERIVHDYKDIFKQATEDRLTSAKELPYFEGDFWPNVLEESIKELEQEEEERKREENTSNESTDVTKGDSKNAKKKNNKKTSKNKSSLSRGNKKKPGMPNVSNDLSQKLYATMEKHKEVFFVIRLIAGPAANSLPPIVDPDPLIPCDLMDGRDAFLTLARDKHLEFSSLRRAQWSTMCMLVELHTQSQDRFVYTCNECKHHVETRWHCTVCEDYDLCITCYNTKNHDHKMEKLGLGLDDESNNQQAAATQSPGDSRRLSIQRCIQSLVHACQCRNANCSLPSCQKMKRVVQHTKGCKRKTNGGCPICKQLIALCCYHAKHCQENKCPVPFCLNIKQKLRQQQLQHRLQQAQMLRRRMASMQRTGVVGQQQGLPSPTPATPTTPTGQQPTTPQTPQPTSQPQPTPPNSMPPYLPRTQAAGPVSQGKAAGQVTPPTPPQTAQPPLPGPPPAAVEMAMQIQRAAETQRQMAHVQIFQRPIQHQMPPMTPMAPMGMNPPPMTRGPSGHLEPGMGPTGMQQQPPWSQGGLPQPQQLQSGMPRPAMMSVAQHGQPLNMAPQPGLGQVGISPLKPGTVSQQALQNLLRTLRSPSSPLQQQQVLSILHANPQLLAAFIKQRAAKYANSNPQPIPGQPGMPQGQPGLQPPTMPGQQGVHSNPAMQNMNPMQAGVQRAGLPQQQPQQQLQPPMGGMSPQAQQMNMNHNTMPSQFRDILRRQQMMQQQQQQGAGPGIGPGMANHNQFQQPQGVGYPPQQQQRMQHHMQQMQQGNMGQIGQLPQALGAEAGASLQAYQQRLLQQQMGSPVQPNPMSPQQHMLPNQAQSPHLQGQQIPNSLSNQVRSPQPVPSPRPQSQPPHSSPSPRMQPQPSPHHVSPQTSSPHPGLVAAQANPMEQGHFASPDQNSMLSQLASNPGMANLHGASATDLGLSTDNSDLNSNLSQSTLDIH
T4 sequence (Q92793 whole entry): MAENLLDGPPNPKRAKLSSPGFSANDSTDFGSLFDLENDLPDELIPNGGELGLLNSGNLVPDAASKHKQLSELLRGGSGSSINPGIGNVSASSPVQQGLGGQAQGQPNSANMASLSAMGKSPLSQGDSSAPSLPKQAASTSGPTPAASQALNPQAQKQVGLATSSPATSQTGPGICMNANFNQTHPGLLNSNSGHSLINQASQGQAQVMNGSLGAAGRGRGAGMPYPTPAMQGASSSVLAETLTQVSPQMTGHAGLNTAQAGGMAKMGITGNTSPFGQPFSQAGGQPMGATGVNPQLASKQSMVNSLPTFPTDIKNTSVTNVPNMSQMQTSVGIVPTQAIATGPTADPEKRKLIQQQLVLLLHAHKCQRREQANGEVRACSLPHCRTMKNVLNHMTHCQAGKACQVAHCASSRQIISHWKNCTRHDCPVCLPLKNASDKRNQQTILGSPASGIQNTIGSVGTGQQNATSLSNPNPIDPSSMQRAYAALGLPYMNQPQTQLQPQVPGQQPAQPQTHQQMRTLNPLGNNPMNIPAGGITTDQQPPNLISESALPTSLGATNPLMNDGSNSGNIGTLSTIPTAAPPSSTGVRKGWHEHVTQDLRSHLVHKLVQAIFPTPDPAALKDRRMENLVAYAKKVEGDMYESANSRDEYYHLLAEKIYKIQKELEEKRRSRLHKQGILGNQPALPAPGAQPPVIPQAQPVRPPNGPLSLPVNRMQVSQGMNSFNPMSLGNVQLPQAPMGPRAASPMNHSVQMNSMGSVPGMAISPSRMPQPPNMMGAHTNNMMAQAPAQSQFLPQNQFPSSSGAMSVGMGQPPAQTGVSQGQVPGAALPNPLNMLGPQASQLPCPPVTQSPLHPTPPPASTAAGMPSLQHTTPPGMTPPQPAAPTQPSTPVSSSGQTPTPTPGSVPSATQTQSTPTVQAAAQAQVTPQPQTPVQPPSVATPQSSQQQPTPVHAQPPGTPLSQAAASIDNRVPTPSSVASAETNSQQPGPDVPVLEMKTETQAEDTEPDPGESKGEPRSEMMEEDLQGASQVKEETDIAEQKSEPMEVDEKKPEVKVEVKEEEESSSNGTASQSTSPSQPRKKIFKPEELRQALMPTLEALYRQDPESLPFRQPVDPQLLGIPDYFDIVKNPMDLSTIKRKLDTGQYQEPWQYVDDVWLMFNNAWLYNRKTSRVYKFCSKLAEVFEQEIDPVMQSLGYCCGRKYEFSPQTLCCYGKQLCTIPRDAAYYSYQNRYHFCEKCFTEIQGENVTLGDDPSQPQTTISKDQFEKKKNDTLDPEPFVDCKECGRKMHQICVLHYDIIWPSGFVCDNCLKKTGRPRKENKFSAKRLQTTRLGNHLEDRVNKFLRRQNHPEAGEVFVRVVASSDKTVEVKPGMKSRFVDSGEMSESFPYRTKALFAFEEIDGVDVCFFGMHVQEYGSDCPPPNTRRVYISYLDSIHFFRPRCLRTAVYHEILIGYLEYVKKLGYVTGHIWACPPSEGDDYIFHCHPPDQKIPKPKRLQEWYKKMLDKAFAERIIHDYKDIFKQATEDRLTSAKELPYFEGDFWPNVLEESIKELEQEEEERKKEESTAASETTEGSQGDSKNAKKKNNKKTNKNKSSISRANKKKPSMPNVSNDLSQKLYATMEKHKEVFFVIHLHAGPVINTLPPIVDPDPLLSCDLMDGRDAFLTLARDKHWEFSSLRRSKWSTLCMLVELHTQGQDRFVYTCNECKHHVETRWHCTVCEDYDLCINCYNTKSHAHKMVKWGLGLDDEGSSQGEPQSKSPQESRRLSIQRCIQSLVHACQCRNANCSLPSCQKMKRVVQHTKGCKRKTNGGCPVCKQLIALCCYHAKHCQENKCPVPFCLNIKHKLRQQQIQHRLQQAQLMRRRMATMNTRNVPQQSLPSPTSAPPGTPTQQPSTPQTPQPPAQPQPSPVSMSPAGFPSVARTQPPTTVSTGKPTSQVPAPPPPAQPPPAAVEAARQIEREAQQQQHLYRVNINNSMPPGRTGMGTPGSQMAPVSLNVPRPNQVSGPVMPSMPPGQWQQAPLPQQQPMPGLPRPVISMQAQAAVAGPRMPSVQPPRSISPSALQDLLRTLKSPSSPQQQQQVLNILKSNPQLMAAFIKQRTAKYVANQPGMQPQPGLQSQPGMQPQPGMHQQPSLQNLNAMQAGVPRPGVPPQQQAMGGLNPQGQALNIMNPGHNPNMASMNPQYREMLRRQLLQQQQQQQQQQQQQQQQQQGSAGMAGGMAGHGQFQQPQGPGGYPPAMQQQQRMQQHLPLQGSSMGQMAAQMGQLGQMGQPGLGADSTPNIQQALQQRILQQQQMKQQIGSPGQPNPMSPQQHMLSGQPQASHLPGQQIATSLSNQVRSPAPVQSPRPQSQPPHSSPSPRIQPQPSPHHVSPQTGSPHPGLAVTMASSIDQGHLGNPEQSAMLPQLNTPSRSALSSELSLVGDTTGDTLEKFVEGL
T5 sequence (Q92793 1081-1197): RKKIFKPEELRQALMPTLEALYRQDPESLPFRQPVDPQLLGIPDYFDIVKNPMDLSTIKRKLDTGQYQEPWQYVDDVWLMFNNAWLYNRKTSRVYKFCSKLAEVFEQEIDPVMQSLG
T5 sequence (Q96SW2 318-442): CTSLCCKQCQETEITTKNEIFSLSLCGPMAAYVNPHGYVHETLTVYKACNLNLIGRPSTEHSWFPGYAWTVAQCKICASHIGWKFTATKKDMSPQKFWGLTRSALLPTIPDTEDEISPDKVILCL

SMILES	pKd [1]	LE CBP (ligand efficiency) [1]	pKd [2]	LE EP300 (ligand efficiency) [2]	% remaining EP300 [3] [%]	% remaining CBP [5] [%]	also measured
CC(=O)Nc1cc(NC(=O)c2ccco2)cc(C(=O)Nc2cccc3nnc(C)cc23)c1 [compound 1]	7.72	0.34	7.64	0.33	–	–	–
Cc1cc2c(NC(=O)c3cc(NC(=O)c4ccco4)cc(-c4ccn(C)n4)c3)cccc2nn1 [compound 2]	8.06	0.33	8.00	0.33	–	–	–
CC(=O)Nc1cc(C(=O)Nc2cccc3nnc(C)cc23)cc(-c2ccn(C)n2)c1 [compound 3]	7.54	0.35	7.60	0.35	–	–	–
Cc1cc2c(NC(=O)c3cc(NC(=O)CCCCCCCN4CCN(c5ccc6c(c5)C(=O)N(C5CCC(=O)NC5=O)C6=O)CC4)cc(-c4ccn(C)n4)c3)cccc2nn1 (stereo not shown) [compound 9]	7.55	–	7.35	–	> 95	> 95	ternary complex formation in cells with CRBN and CBP-BRD [6]: good ternary complex formation
Cc1cc2c(NC(=O)c3cc(NC(=O)CCCCCCCCCCNc4cccc5c4C(=O)N(C4CCC(=O)N(C)C4=O)C5=O)cc(-c4ccn(C)n4)c3)cccc2nn1 (stereo not shown) [compound 10]	–	–	–	–	–	–	degradation of EP300 ([3]; 1 μM): abrogated; pIC50 ([7]; absence of CRBN, read-out: CBP-BRD IC50 (binary, IC50[control])): 6.66; pIC50 ([7]; presence of high concentrations of CRBN C-terminal thalidomide binding domain, read-out: ternary IC50 (IC50[CRBN])): 6.64; degradation of CBP ([5]; 1 μM): abrogated; ternary complex formation (TR-FRET) [8]: did not show cooperativity or ternary complex formation

Further lines, with some results ahead:

pKd [1]	LE CBP (ligand efficiency) [1]	pKd [2]	LE EP300 (ligand efficiency) [2]	% remaining EP300 [3] [%]	% remaining CBP [5] [%]	SMILES	also measured
5.48	–	< 5.00	–	43	21	Cc1cc2c(NC(=O)c3cc(NC(=O)CCCCCCCCCCCNc4cccc5c4C(=O)N(C4CCC(=O)NC4=O)C5=O)cc(-c4ccn(C)n4)c3)cccc2nn1 (stereo not shown) [compound 4]	ternary complex formation in cells with CBP catalytic core [4]: able to induce ternary complex formation; ternary complex formation in cells with CRBN and CBP-BRD [6]: good ternary complex formation
–	–	–	–	87	83	Cc1cc2c(NC(=O)c3cc(NC(=O)CCCCCCCCNc4cccc5c4C(=O)N(C4CCC(=O)NC4=O)C5=O)cc(-c4ccn(C)n4)c3)cccc2nn1 (stereo not shown) [compound 6]	–
–	–	–	–	69	30	Cc1cc2c(NC(=O)c3cc(NC(=O)CCCCCCCCCCNc4ccc5c(c4)C(=O)N(C4CCC(=O)NC4=O)C5=O)cc(-c4ccn(C)n4)c3)cccc2nn1 (stereo not shown) [compound 7]	–
–	–	–	–	95	81	Cc1cc2c(NC(=O)c3cc(NC(=O)COCCOCCOCCNc4cccc5c4C(=O)N(C4CCC(=O)NC4=O)C5=O)cc(-c4ccn(C)n4)c3)cccc2nn1 (stereo not shown) [compound 8]	–
